Results taken from patent US20160166536A1, “COMBINATION THERAPY FOR THE TREATMENT OF CANCER” (NORTHWESTERN UNIVERSITY, priority 2014, published 2016).

Key:
Assay type in all cases: cell-based
[1] = tested on: MDA-MB-436 cells; test: MTS proliferation assay, MDA-MB-436 cells on TCPS; settings: 300 nM CYC065 alone, 5 nM Eribulin alone or their combination, 48 h, FIG. 2C
Experimental: (§1) The ability of a composition including Eribulin and CYC065 to inhibit inhibiting tumor cell proliferation of triple-negative breast cancer cells was evaluated in three different cell lines having the triple-negative phenotype: MDA-MB-231 (FIG. 2A), […] (FIG. 2B) and MDA-MB-436 (FIG. 2C). The cells were seeded on tissue culture plates and cultured for ˜18 h. The cells were then contacted with 300 nM CYC065 alone, 5 nM Eribulin alone or a combination of 300 nM CYC065 and 5 nM Eribulin for 48 h.
(§2) MDA-MB-231, HS-578T and MDA-MB-436 cells lines were seeded on TCPS at 5000 cells/well and cultured for ˜18 h. They were then treated with 300 nM CYC065 and 5 nM Eribulin or their combination for 48 h. Proliferation was quantified using the MTS assay. […] (N≧4 for all groups.) Data was analyzed using one-way ANOVA and comparison between groups post ANOVA was performed using Tukey HSD test.

[2] = tested on: MDA-MB-231 cells; test: MTS proliferation assay, MDA-MB-231 cells on tissue culture plates (2D TCPS); settings: 48 h
Experimental: To evaluate the effectiveness of Eribulin and CYC065 in inhibiting tumor cell proliferation of triple-negative breast cancer cells, the breast cancer cell line MDA-MB-231 having the triple-negative phenotype was tested. MDA-MB-231 cells were seeded on tissue culture plates and cultured for ˜18 h. Cells were treated with different doses of either drug [Eribulin (0.1 nM-100 nM); CYC065 (50 nM-1000 nM)] for 48 h. Proliferation was quantified using the MTS assay.
as §1
MDA-MB-231 cells were seeded on 2D TCPS at 5000 cells/well and cultured for ˜18 h. […] Proliferation was quantified using the MTS assay.
as §2, with “They were then treated with 300 nM CYC065 and 5 nM Eribulin or their combination for 48 h.” left out

[3] = tested on: HS-578T cells; test: MTS proliferation assay, HS-578T cells on TCPS; settings: 300 nM CYC065 alone, 5 nM Eribulin alone or their combination, 48 h, FIG. 2B
Experimental: as §1, §2

SMILES: C=C1C[C@@H]2CC[C@@]34C[C@H]5O[C@H]6[C@@H](O3)[C@H]3O[C@H](CC[C@@H]3O[C@H]6[C@H]5O4)CC(=O)C[C@@H]3[C@@H](OC)[C@@H](C[C@H](O)CN)O[C@H]3C[C@H]3O[C@@H](CC[C@@H]1O2)C[C@@H](C)C3=C [Eribulin, 2-(3-Amino-2-hydroxypropyl)hexacosahydro-3-methoxy-26-methyl-20,27-bis(methylene)11,15-18,21-24,28-triepoxy-7,9-ethano-12,15-methano-9H,15H-furo(3,2-i)furo(2′,3′-5,6) pyrano(4,3-b)(1,4)dioxacyclopentacosin-5-(4H)-one]
- inhibition of tumor cell proliferation [1]: inhibited tumor cell proliferation
- inhibition of tumor cell proliferation ([2]; 300 nM CYC065 alone, 5 nM Eribulin alone or their combination, FIG. 2A): inhibited tumor cell proliferation
- inhibition of cell proliferation, dose response ([2]; Eribulin 0.1 nM-100 nM, CYC065 50 nM-1000 nM, FIGS. 1A, 1B): inhibit proliferation in the nM range
- inhibition of tumor cell proliferation [3]: inhibited tumor cell proliferation
